Residues, ends and D or L forms follow the SMILES beside them. *: point of attachment. Biotin = O=C1N[C@H]2[C@H](CS[C@H]2CCCCC(=O)*)N1
Legend:
[1] = tested on: neurons of primary cortical cultures; assay: Neuronal viability (MTT) under NMDA excitotoxicity; format: cell-based, rat
Method: Cultures were prepared from cerebral cortex of 18-day-old Wistar rat embryos, both genders indistinctly included. Unless otherwise indicated, glial growth was inhibited after 7 days in vitro (DIVs), experimental treatments taking place after 12 DIVs. These cultures present a high percentage of neurons, combined with glial cells, mostly astrocytes. To induce excitotoxicity, cultures were incubated with NMDA (100 µM) and its co-agonist glycine (10 µM), herein denoted simply as NMDA, which induce a strong excitotoxic response in mature neurons but have no effect on astrocyte viability,[47]. When indicated, cultures were preincubated for 30 min with indicated concentrations of Tat-derived CPPs before NMDA treatment, peptides being kept in the medium along treatment. Total cell or neuronal viability assessment was established by the thiazolyl blue formazan (MTT) reduction assay. Further details are provided as Supplementary material. […]
skull for 10 min. Br ain injury encompas se s damage to vas cular endothelium, platelet activation, and subs equent microvascula r thrombotic occlus ion of the irradiate d region. The ar eas underneath this ste reotaxic position that result irradiate d ar e the prima ry motor cortex and the prima ry soma tos ens ory cortex (hindlimb and forelimb). Once completed surgery, the incision was sutured, and mice were allowed to recover.
For neuroprote ction experiments, a single dose (3 nmol/g) of peptides TMyc or TT1Ct (> 95% purity; GenScript), solubilized as 2.5 mM solutions in 0.9% NaC l, we retro-orbita lly injected 1 h af ter damage initiation. In order to improve their plas ma sta bility, thes e peptides ar e N- and C-ter modifie d by, respec tive ly, ace tyl and amide groups. Mi c e were not subje cted to other procedures before isc hemia and were naive to drug or peptide treatment. Animals were randomly allocated to the experimental groups and the resea rc hers doing the experiments were blind respec t to treatment. There was not a previous es tima tion of sa mple si z e and experiments were independently car r ied out as indicated. Twenty-four hours af ter damage induction, animals completed the beam walking test and were subs equently sa cri f i ced by cervical disloca tion to meas ure the infarc t volume, as indicated below. Be fore that, brains were se ctioned into se ri al 1-mm-thick coronal sl i ce s using a mouse brain matrix (Stoe lting, Wood Dale, IL, USA), and se ctions were completely sta ine d with 2% TTC at room temperature to visua liz e the cortical infarc ts . For immunohistochemis try, animals were deeply anes thetized 5 or 24 h af ter brain damage and intra cardially perfus ed with cold PBS and 4% paraformalde hyde in PBS as indicated below.
Primary cultures of rat cor tic al neurons to study in vitro excitotoxicity The diss ected cerebral cortices of Wis ta r rat embryos (E18), both genders included, were mechanic ally diss ociated in culture medium (Minimum Esse ntia l Me dium, ME M, Life Technologies) follow ed by se eding of the cell sus pens ion at a dens ity of 1.1x10^6 cells /ml, prepared in the sa m e medium supple me nted with 22.2 mM glucos e, 0.1 mM glutamax, 5% foetal bovine se rum (FBS), 5% donor horse se rum (HS), 100 U/ml penicillin and 100 µg/ml streptomycin. Be fore se eding, the plates were treated overnight at 37°C with 100 µg/ml poly-L-lysine and 4 µg/ml laminin. The cells were incubated at 37°C in an atmosphe re of 5% CO2 and 95% humidity. Generally, glial growth was inhibited af ter 7 days in vitro (DIV s) by adding 10 µM 5 cytos ine β-D-arabinofuranos ide (AraC) and experimental treatments took place af ter 12 DIVs. Excitotoxicity was induced by incubation with NM DA (100 µM) and glycine (10 µM) for the indicated times. As indicated, cultures were preincubated with Tat-derived CP P s before […]
Mi c e had to walk through a narrow beam (1 m × 1 cm × 1 cm) placed 50 cm above the tabletop, going from an aversive stimulus (60-W light bulb) to a black goal box with nes ting material. […]

[2] = tested on: NeuN+ neurons and GFAP+ astrocytes of mixed cortical cultures; assay: Peptide visualization in primary cultures (Fluorescein Avidin D); format: cell-based, rat; details: peptide 25 µM, 30 min; Fluorescein Avidin D with NeuN and GFAP double staining (Fig 1C)
[3] = peptide 25 µM preincubated 30 min, NMDA 100 µM + glycine 10 µM for 2 h, relative to untreated cells (100%), mean ± SEM, n = 8 (Fig 1E)
[4] = peptide 25 µM preincubated 30 min, NMDA 100 µM + glycine 10 µM for 4 h, relative to untreated cells (100%), mean ± SEM, n = 8 (Fig 1E)

Compound | Relative neuronal viability (%) [1, 3] | Relative neuronal viability (%) [1, 4] | Peptide entry into neurons and astrocytes [2] | Relative neuronal viability (%) ([1]; 2 h, 15 µM) | Relative neuronal viability (%) ([1]; 4 h, 15 µM) | Neuronal viability ([1]; CPPs 0: peptide and NMDA (100 µM) at the same time, viability after 4 h of excitotoxicity, relative to untreated cells (100%), mean, n = 4-8 (Fig S4)) | Neuronal viability ([1]; CPPs 30: peptide added 30' post-NMDA (100 µM), viability after 4 h of excitotoxicity, relative to untreated cells (100%), mean, n = 4-8 (Fig S4)) | Neuronal viability ([1]; CPPs 60: peptide added 60' post-NMDA (100 µM), viability after 4 h of excitotoxicity, relative to untreated cells (100%), mean, n = 4-8 (Fig S4)) | Neuronal viability ([1]; dose-response experiment (Fig 3B): peptide 15 µM preincubated 30 min, NMDA 2 h, mean ± SEM, n = 8)
CC[C@H](C)[C@H](NC(=O)[C@H](CC(C)C)NC(=O)[C@H](CCCCN)NC(=O)[C@H](CCC(N)=O)NC(=O)[C@H](CCC(=O)O)NC(=O)[C@H](CCC(=O)O)NC(=O)[C@H](C)NC(=O)[C@H](CCCNC(=N)N)NC(=O)[C@H](CCCNC(=N)N)NC(=O)[C@H](CCCNC(=N)N)NC(=O)[C@H](CCC(N)=O)NC(=O)[C@H](CCCNC(=N)N)NC(=O)[C@H](CCCNC(=N)N)NC(=O)[C@H](CCCCN)NC(=O)[C@H](CCCCN)NC(=O)[C@H](CCCNC(=N)N)NC(=O)CNC(=O)[C@H](Cc1ccc(O)cc1)NC(=O)CCCC[C@@H]1SC[C@@H]2NC(=O)N[C@@H]21)C(=O)N[C@@H](CO)C(=O)N[C@@H](CCC(=O)O)C(=O)N[C@@H](CCC(=O)O)C(=O)N[C@@H](CC(=O)O)C(=O)N[C@@H](CC(C)C)C(=O)N[C@@H](CC(C)C)C(=O)N[C@@H](CCCNC(=N)N)C(N)=O [Bio-TMyc, reference compound] (Biotin-YGRKKRRQRRRAEEQKLISEEDLLR-NH2) | 24 ± 3% | 16 ± 3% | found inside both NeuN+ (arrowheads) and GFAP+ (asterisks) cells | – | – | – | – | – | –
CC[C@H](C)[C@H](NC(=O)[C@H](CCCCN)NC(=O)[C@H](Cc1c[nH]cn1)NC(=O)[C@H](Cc1ccccc1)NC(=O)[C@H](CC(C)C)NC(=O)[C@@H](NC(=O)[C@H](Cc1ccccc1)NC(=O)[C@H](CCCNC(=N)N)NC(=O)[C@H](CCCNC(=N)N)NC(=O)[C@H](CCCNC(=N)N)NC(=O)[C@H](CCC(N)=O)NC(=O)[C@H](CCCNC(=N)N)NC(=O)[C@H](CCCNC(=N)N)NC(=O)[C@H](CCCCN)NC(=O)[C@H](CCCCN)NC(=O)[C@H](CCCNC(=N)N)NC(=O)CNC(=O)[C@H](Cc1ccc(O)cc1)NC(=O)CCCC[C@@H]1SC[C@@H]2NC(=O)N[C@@H]21)C(C)C)C(=O)N1CCC[C@H]1C(=O)N[C@@H](CC(C)C)C(=O)N[C@@H](CC(=O)O)C(=O)NCC(N)=O [Bio-sTT1Ct] (Biotin-YGRKKRRQRRRFVLFHKIPLDG-NH2) | 50 ± 5% | 32 ± 3% | found inside both NeuN+ (arrowheads) and GFAP+ (asterisks) cells | 45% | 39% | – | – | – | –
Ac-YGRKKRRQRRRPPFVLFHKIPLDG-NH2 [TT1Ct] | – | – | – | – | – | 59% | 31% | 37% | 46 ± 7%

From paper PMC11984388, “A brain-accessible peptide modulates stroke inflammatory response and neurotoxicity by targeting BDNF-receptor TrkB-T1 specific interactome” (Theranostics, 2025)
